According to ChEMBL document CHEMBL1143815, “Spread of extended-spectrum beta-lactamase CTX-M-producing escherichia coli clinical isolates in community and nosocomial environments in Portugal” (2007):
In brackets after ≈: the same amount, converted by molar mass.

How the values were obtained:
Type in all cases: functional
Escherichia coli [1] = experiment: Antibacterial activity against CTX-M group 9 enzyme producing Escherichia coli isolates assessed as percent resistant isolates by broth microdilution method
Escherichia coli [2] = experiment: Antibacterial activity against CTX-M group 9 enzyme producing Escherichia coli isolates by broth microdilution method
Escherichia coli [3] = experiment: Antibacterial activity against CTX-M group 1 enzyme producing Escherichia coli isolates by broth microdilution method
Escherichia coli [4] = experiment: Antibacterial activity against Escherichia coli DH5 alpha-URA5905 isolates expressing CTX-M-15 and TEM-1B enzymes by agar dilution method
Escherichia coli [5] = experiment: Antibacterial activity against Escherichia coli DH5 alpha isolates by agar dilution method
Escherichia coli [6] = experiment: Antibacterial activity against Escherichia coli INSRA5924 isolates expressing CTX-M-32 and TEM-1B enzymes by agar dilution method
Escherichia coli [7] = experiment: Antibacterial activity against Escherichia coli DH5 alpha-URA5924 isolates expressing CTX-M-32 by agar dilution method
Escherichia coli [8] = experiment: Antibacterial activity against Escherichia coli INSRA5776 isolates expressing CTX-M-14 and TEM-1B enzymes by agar dilution method
Escherichia coli [9] = experiment: Antibacterial activity against Escherichia coli DH5 alpha-URA5776 isolates expressing CTX-M-14 enzyme by agar dilution method
Escherichia coli [10] = experiment: Antibacterial activity against CTX-M group 9 enzyme producing Escherichia coli isolates assessed as percent nonsusceptible isolates by broth microdilution method
Escherichia coli [11] = experiment: Antibacterial activity against Escherichia coli INSRA5905 isolates expressing CTX-M-15 and TEM-1B enzymes by agar dilution method
Escherichia coli [12] = experiment: Antibacterial activity against CTX-M group 1 enzyme producing Escherichia coli isolates assessed as percent nonsusceptible isolates by broth microdilution method
Escherichia coli [13] = experiment: Antibacterial activity against CTX-M group 1 enzyme producing Escherichia coli isolates assessed as percent resistant isolates by broth microdilution method

Structure (SMILES)	Activity (Escherichia coli [1])	MIC50 (Escherichia coli [2])	MIC90 (Escherichia coli [2])	MIC50 (Escherichia coli [3])	MIC90 (Escherichia coli [3])	MIC (Escherichia coli [4])	MIC (Escherichia coli [5])	MIC (Escherichia coli [6])	MIC (Escherichia coli [7])	MIC (Escherichia coli [8])	MIC (Escherichia coli [9])	Activity (Escherichia coli [10])	MIC (Escherichia coli [11])	Activity (Escherichia coli [12])	Activity (Escherichia coli [13])
CO/N=C(\C(=O)N[C@@H]1C(=O)N2C(C(=O)[O-])=C(C[N+]3(C)CCCC3)CS[C@H]12)c1csc(N)n1	78%	> 16 µg/mL	> 16 µg/mL	> 16 µg/mL	> 16 µg/mL	8 µg/mL (≈ 16.6 µM)	0.03 µg/mL (≈ 0.0624 µM)	16 µg/mL (≈ 33.3 µM)	4 µg/mL (≈ 8.32 µM)	8 µg/mL (≈ 16.6 µM)	2 µg/mL (≈ 4.16 µM)	100%	–	–	–
CC1(C)S[C@@H]2[C@H](/N=C\N3CCCCCC3)C(=O)N2[C@H]1C(=O)O	–	–	–	–	–	2 µg/mL (≈ 6.15 µM)	0.125 µg/mL (≈ 0.384 µM)	2 µg/mL (≈ 6.15 µM)	0.5 µg/mL (≈ 1.54 µM)	1 µg/mL (≈ 3.07 µM)	0.5 µg/mL (≈ 1.54 µM)	–	2 µg/mL (≈ 6.15 µM)	–	–
CC1(C)S[C@@H]2[C@H](NC(=O)C(C(=O)O)c3ccsc3)C(=O)N2[C@H]1C(=O)O (single isomer, unassigned) [TICARCILLIN]	–	> 64 µg/mL	> 64 µg/mL	> 64 µg/mL	> 64 µg/mL	> 4100 µg/mL	4 µg/mL (≈ 10.4 µM)	> 4100 µg/mL	> 4100 µg/mL	> 4100 µg/mL	> 4100 µg/mL	100%	> 4100 µg/mL	100%	–
CO/N=C(\C(=O)N[C@@H]1C(=O)N2C(C(=O)O)=C(COC(C)=O)CS[C@H]12)c1csc(N)n1 (stereo in doubt) [CEFOTAXIME]	–	> 32 µg/mL	> 32 µg/mL	> 32 µg/mL	> 32 µg/mL	512 µg/mL (≈ 1120 µM)	0.06 µg/mL (≈ 0.132 µM)	256 µg/mL (≈ 562 µM)	128 µg/mL (≈ 281 µM)	32 µg/mL (≈ 70.3 µM)	32 µg/mL (≈ 70.3 µM)	100%	512 µg/mL (≈ 1120 µM)	100%	99%
CO/N=C(\C(=O)N[C@@H]1C(=O)N2C(C(=O)O)=C(CSc3nc(=O)c(O)nn3C)CS[C@H]12)c1csc(N)n1 (stereo in doubt) [CEFTRIAXONE]	–	> 32 µg/mL	> 32 µg/mL	> 32 µg/mL	> 32 µg/mL	256 µg/mL (≈ 462 µM)	0.03 µg/mL (≈ 0.0541 µM)	256 µg/mL (≈ 462 µM)	64 µg/mL (≈ 115 µM)	32 µg/mL (≈ 57.7 µM)	32 µg/mL (≈ 57.7 µM)	100%	> 512 µg/mL	100%	–
NCC[C@H](O)C(=O)N[C@@H]1C[C@H](N)[C@@H](O[C@H]2O[C@H](CN)[C@@H](O)[C@H](O)[C@H]2O)[C@H](O)[C@H]1O[C@H]1O[C@H](CO)[C@@H](O)[C@H](N)[C@H]1O [AMIKACIN]	–	≤ 8 µg/mL	16 µg/mL (≈ 27.3 µM)	≤ 8 µg/mL	16 µg/mL (≈ 27.3 µM)	–	–	–	–	–	–	0%	–	7%	4%
CC1(C)S[C@@H]2[C@H](NC(=O)[C@H](N)c3ccc(O)cc3)C(=O)N2[C@H]1C(=O)O [AMOXICILLIN]	–	–	–	–	–	> 4100 µg/mL	8 µg/mL (≈ 21.9 µM)	> 4100 µg/mL	> 4100 µg/mL	> 4100 µg/mL	> 4100 µg/mL	–	> 4100 µg/mL	–	–
CC1(C)S[C@@H]2[C@H](NC(=O)[C@H](N)c3ccccc3)C(=O)N2[C@H]1C(=O)O [AMPICILLIN]	–	> 16 µg/mL	> 16 µg/mL	> 16 µg/mL	> 16 µg/mL	–	–	–	–	–	–	100%	–	100%	–
C[C@H]1[C@H](NC(=O)/C(=N\OC(C)(C)C(=O)O)c2csc(N)n2)C(=O)N1S(=O)(=O)O [AZTREONAM]	11%	8 µg/mL (≈ 18.4 µM)	> 16 µg/mL	> 16 µg/mL	> 16 µg/mL	64 µg/mL (≈ 147 µM)	–	64 µg/mL (≈ 147 µM)	64 µg/mL (≈ 147 µM)	8 µg/mL (≈ 18.4 µM)	8 µg/mL (≈ 18.4 µM)	22%	128 µg/mL (≈ 294 µM)	100%	100%
Cc1nnc(SCC2=C(C(=O)O)N3C(=O)[C@@H](NC(=O)Cn4cnnn4)[C@H]3SC2)s1 [CEFAZOLIN]	–	> 16 µg/mL	> 16 µg/mL	> 16 µg/mL	> 16 µg/mL	–	–	–	–	–	–	100%	–	100%	–
CCN1CCN(C(=O)N[C@@H](C(=O)N[C@@H]2C(=O)N3C(C(=O)O)=C(CSc4nnnn4C)CS[C@H]23)c2ccc(O)cc2)C(=O)C1=O [CEFOPERAZONE]	–	–	–	–	–	256 µg/mL (≈ 396 µM)	≤ 0.25 µg/mL	256 µg/mL (≈ 396 µM)	64 µg/mL (≈ 99.1 µM)	256 µg/mL (≈ 396 µM)	16 µg/mL (≈ 24.8 µM)	–	> 512 µg/mL	–	–
CO[C@@]1(NC(=O)Cc2cccs2)C(=O)N2C(C(=O)O)=C(COC(N)=O)CS[C@@H]21 [CEFOXITIN]	0%	≤ 4 µg/mL	> 16 µg/mL	≤ 4 µg/mL	8 µg/mL (≈ 18.7 µM)	4 µg/mL (≈ 9.36 µM)	4 µg/mL (≈ 9.36 µM)	16 µg/mL (≈ 37.4 µM)	8 µg/mL (≈ 18.7 µM)	32 µg/mL (≈ 74.9 µM)	4 µg/mL (≈ 9.36 µM)	11%	16 µg/mL (≈ 37.4 µM)	5%	1%
CC(C)(O/N=C(\C(=O)N[C@@H]1C(=O)N2C(C(=O)[O-])=C(C[n+]3ccccc3)CS[C@H]12)c1csc(N)n1)C(=O)O [CEFTAZIDIME]	11%	2 µg/mL (≈ 3.66 µM)	> 16 µg/mL	> 16 µg/mL	> 16 µg/mL	64 µg/mL (≈ 117 µM)	0.25 µg/mL (≈ 0.457 µM)	16 µg/mL (≈ 29.3 µM)	16 µg/mL (≈ 29.3 µM)	2 µg/mL (≈ 3.66 µM)	1 µg/mL (≈ 1.83 µM)	11%	128 µg/mL (≈ 234 µM)	99%	98%
CO/N=C(\C(=O)N[C@@H]1C(=O)N2C(C(=O)O)=C(COC(N)=O)CS[C@H]12)c1ccco1 [CEFUROXIME]	–	> 16 µg/mL	> 16 µg/mL	> 16 µg/mL	> 16 µg/mL	> 256 µg/mL	4 µg/mL (≈ 9.43 µM)	> 256 µg/mL	> 256 µg/mL	> 256 µg/mL	> 256 µg/mL	100%	> 256 µg/mL	100%	–
CC(=O)OCC1=C(C(=O)O)N2C(=O)[C@@H](NC(=O)Cc3cccs3)[C@H]2SC1 [CEPHALOTHIN]	–	> 16 µg/mL	> 16 µg/mL	> 16 µg/mL	> 16 µg/mL	> 1020 µg/mL	8 µg/mL (≈ 20.2 µM)	> 1020 µg/mL	> 1020 µg/mL	> 1020 µg/mL	1020 µg/mL (≈ 2580 µM)	100%	> 1020 µg/mL	100%	–
O=C(O)c1cn(C2CC2)c2cc(N3CCNCC3)c(F)cc2c1=O [CIPROFLOXACIN]	–	≤ 0.5 µg/mL	> 2 µg/mL	> 2 µg/mL	> 2 µg/mL	≤ 0.125 µg/mL	≤ 0.125 µg/mL	–	≤ 0.125 µg/mL	256 µg/mL (≈ 773 µM)	≤ 0.125 µg/mL	33%	1020 µg/mL (≈ 3090 µM)	98%	–
C[C@@H](O)[C@H]1C(=O)N2C(C(=O)O)=C(SCCNC=N)C[C@H]12 [IMIPENEM ANHYDROUS]	–	≤ 0.5 µg/mL	≤ 0.5 µg/mL	≤ 0.5 µg/mL	≤ 0.5 µg/mL	–	–	0.125 µg/mL (≈ 0.418 µM)	0.125 µg/mL (≈ 0.418 µM)	≤ 0.06 µg/mL	0.5 µg/mL (≈ 1.67 µM)	0%	0.25 µg/mL (≈ 0.835 µM)	0%	–
C[C@@H](O)[C@H]1C(=O)N2C(C(=O)O)=C(S[C@@H]3CN[C@H](C(=O)N(C)C)C3)[C@H](C)[C@H]12 [MEROPENEM]	–	≤ 1 µg/mL	≤ 1 µg/mL	≤ 1 µg/mL	≤ 1 µg/mL	–	–	–	–	–	–	0%	–	0%	–
CCn1cc(C(=O)O)c(=O)c2cc(F)c(N3CCNCC3)cc21 [NORFLOXACIN]	33%	≤ 2 µg/mL	> 8 µg/mL	> 8 µg/mL	> 8 µg/mL	–	–	–	–	–	–	33%	–	98%	98%
CC1COc2c(N3CCN(C)CC3)c(F)cc3c(=O)c(C(=O)O)cn1c23 (configuration not stated) [OFLOXACIN]	–	≤ 0.5 µg/mL	> 4 µg/mL	> 4 µg/mL	> 4 µg/mL	–	–	–	–	–	–	33%	–	98%	–
CCN1CCN(C(=O)N[C@@H](C(=O)N[C@@H]2C(=O)N3[C@@H]2SC(C)(C)[C@@H]3C(=O)O)c2ccccc2)C(=O)C1=O [PIPERACILLIN]	–	> 64 µg/mL	> 64 µg/mL	> 64 µg/mL	> 64 µg/mL	512 µg/mL (≈ 989 µM)	2 µg/mL (≈ 3.86 µM)	> 512 µg/mL	512 µg/mL (≈ 989 µM)	256 µg/mL (≈ 495 µM)	256 µg/mL (≈ 495 µM)	100%	> 512 µg/mL	100%	–
NC[C@H]1O[C@H](O[C@H]2[C@H](O)[C@@H](O[C@H]3O[C@H](CO)[C@@H](O)[C@H](N)[C@H]3O)[C@H](N)C[C@@H]2N)[C@H](N)C[C@@H]1O [TOBRAMYCIN]	–	≤ 2 µg/mL	> 8 µg/mL	> 8 µg/mL	> 8 µg/mL	–	–	–	–	–	–	22%	–	95%	94%
COc1cc(Cc2cnc(N)nc2N)cc(OC)c1OC [TRIMETHOPRIM]	–	–	–	–	–	≤ 0.125 µg/mL	≤ 0.125 µg/mL	0.25 µg/mL (≈ 0.861 µM)	≤ 0.125 µg/mL	64 µg/mL (≈ 220 µM)	> 64 µg/mL	–	≤ 0.125 µg/mL	–	–
